Laboratory results as given in ChEMBL document CHEMBL1201862, “PubChem BioAssay data set” (2004).
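Protocol summary: plate cells (96-well), add compound at 5 concentrations, incubate 48 h, interpolate endpoints linearly. The concentration for 50% growth inhibition is given as GI50.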 Active and inactive are the calls of the source. Cut-off read from the data, not from the text of the source: active = GI50 up to about 1.1 µM and inactive = higher.

How the values were obtained:
Test in all cases: DTP human tumour cell line panel, 48 h
K562 = tested on: K562
ACHN = tested on: ACHN
OVCAR-3 = tested on: OVCAR-3
HCC 2998 = tested on: HCC 2998
M14 = tested on: M14
LOX IMVI = tested on: LOX IMVI
PC-3 = tested on: PC-3
DU-145 = tested on: DU-145
SNB-19 = tested on: SNB-19
MCF7 = tested on: MCF7
HOP-92 = tested on: HOP-92
786-0 = tested on: 786-0
SF-295 = tested on: SF-295
MOLT-4 = tested on: MOLT-4
HCT-116 = tested on: HCT-116
CCRF-CEM = tested on: CCRF-CEM
OVCAR-5 = tested on: OVCAR-5
Hs-578T = tested on: Hs-578T
SNB-75 = tested on: SNB-75
SF-268 = tested on: SF-268

| SMILES | GI50 (K562) | GI50 (ACHN) | GI50 (OVCAR-3) | GI50 (HCC 2998) | GI50 (M14) | GI50 (LOX IMVI) | GI50 (PC-3) | GI50 (DU-145) | GI50 (SNB-19) | GI50 (MCF7) | GI50 (HOP-92) | GI50 (786-0) | GI50 (SF-295) | GI50 (MOLT-4) | GI50 (HCT-116) | GI50 (CCRF-CEM) | GI50 (OVCAR-5) | GI50 (Hs-578T) | GI50 (SNB-75) | GI50 (SF-268) |
| --- | --- | --- | --- | --- | --- | --- | --- | --- | --- | --- | --- | --- | --- | --- | --- | --- | --- | --- | --- | --- |
| O=S1(=O)OCCOS(=O)(=O)C1Cc1nc2ccccc2[nH]1 | 34.5 µM (inactive) | 32.1 µM (inactive) | 45.8 µM (inactive) | 54.7 µM (inactive) | 44.8 µM (inactive) | 14.5 µM (inactive) | 19.6 µM (inactive) | > 100 µM (inactive) | 37.2 µM (inactive) | 33.7 µM (inactive) | 0.114 µM (active) | 39.7 µM (inactive) | 24.7 µM (inactive) | 24.2 µM (inactive) | 23 µM (inactive) | 33 µM (inactive) | > 100 µM (inactive) | – | – | – |
| O=C(O)[C@@H]1C2CC([C@@H]1C(=O)O)[C@H](N1C(=O)CCC1=O)[C@@H]2Br (some centres not stated) | > 100 µM (inactive) | > 100 µM (inactive) | > 100 µM (inactive) | > 100 µM (inactive) | > 100 µM (inactive) | > 100 µM (inactive) | > 100 µM (inactive) | > 100 µM (inactive) | > 100 µM (inactive) | – | > 100 µM (inactive) | > 100 µM (inactive) | > 100 µM (inactive) | > 100 µM (inactive) | > 100 µM (inactive) | > 100 µM (inactive) | > 100 µM (inactive) | > 100 µM (inactive) | 84.5 µM (inactive) | > 100 µM (inactive) |
| O=C(CC(=O)n1nc(-c2ccccc2)c(/N=N/c2ccccc2C(=O)O)c1-c1ccccc1)Nc1ccc(Cl)cc1 | 25.6 µM (inactive) | 33.5 µM (inactive) | – | 34.4 µM (inactive) | 55.8 µM (inactive) | – | 27.5 µM (inactive) | – | 21.7 µM (inactive) | 30.3 µM (inactive) | 5.9 µM (inactive) | 36.1 µM (inactive) | – | 5.57 µM (inactive) | 17.9 µM (inactive) | – | 43 µM (inactive) | 35.6 µM (inactive) | 27.9 µM (inactive) | – |
| N#Cc1c(-c2ccc(Cl)cc2)c(C#N)c(=O)n(NS(=O)(=O)c2ccccc2)c1S | 27.9 µM (inactive) | 24.9 µM (inactive) | 23.1 µM (inactive) | > 10 µM (inactive) | 26.7 µM (inactive) | 18 µM (inactive) | 19.1 µM (inactive) | 52.8 µM (inactive) | – | 32.6 µM (inactive) | 44.7 µM (inactive) | 17.2 µM (inactive) | 34.2 µM (inactive) | 21.6 µM (inactive) | 25.5 µM (inactive) | 5.79 µM (inactive) | 54.7 µM (inactive) | – | 28.7 µM (inactive) | – |
| COC(=O)[C@@H]1O[C@]12C(CO[Si](C)(C)C(C)(C)C)OC(n1ccc(=O)[nH]c1=O)C2O[Si](C)(C)C(C)(C)C (some centres not stated) | 25.5 µM (inactive) | 22 µM (inactive) | 16.7 µM (inactive) | 6.87 µM (inactive) | 15.3 µM (inactive) | 14.8 µM (inactive) | 20.9 µM (inactive) | 25.2 µM (inactive) | 22.9 µM (inactive) | 12.4 µM (inactive) | 27.4 µM (inactive) | 20.6 µM (inactive) | 21.8 µM (inactive) | 8.36 µM (inactive) | 23.3 µM (inactive) | > 100 µM (inactive) | 25.1 µM (inactive) | – | > 100 µM (inactive) | 30.4 µM (inactive) |
| CCOC(=O)CCC(NC(=O)C(CCC(=O)OCC)NC(=O)C(Cc1ccc([N+](=O)[O-])cc1)NC(C)=O)C(=O)NNC(=O)OC(C)(C)C (configuration not stated) | > 100 µM (inactive) | > 100 µM (inactive) | – | > 100 µM (inactive) | > 100 µM (inactive) | – | > 100 µM (inactive) | – | > 100 µM (inactive) | > 100 µM (inactive) | > 100 µM (inactive) | > 100 µM (inactive) | – | > 100 µM (inactive) | > 100 µM (inactive) | – | > 100 µM (inactive) | > 100 µM (inactive) | > 100 µM (inactive) | – |
| COc1cc(C(=O)N(C(=O)N2CCCCC2)c2ccccc2)cc(OC)c1OC | > 100 µM (inactive) | > 100 µM (inactive) | > 100 µM (inactive) | > 100 µM (inactive) | > 100 µM (inactive) | > 100 µM (inactive) | > 100 µM (inactive) | > 100 µM (inactive) | > 100 µM (inactive) | > 100 µM (inactive) | > 100 µM (inactive) | > 100 µM (inactive) | > 100 µM (inactive) | > 100 µM (inactive) | > 100 µM (inactive) | > 100 µM (inactive) | > 100 µM (inactive) | – | > 100 µM (inactive) | – |
| O=C1Nc2ccccc2C(=O)/C1=C/NC(=S)NCc1ccccc1 | – | > 100 µM (inactive) | > 100 µM (inactive) | – | > 100 µM (inactive) | > 100 µM (inactive) | > 100 µM (inactive) | > 100 µM (inactive) | > 100 µM (inactive) | > 100 µM (inactive) | > 100 µM (inactive) | > 100 µM (inactive) | > 100 µM (inactive) | > 100 µM (inactive) | > 100 µM (inactive) | – | > 100 µM (inactive) | – | > 100 µM (inactive) | – |
| C=C1C(=O)O[C@@H]2C[C@@H](C)[C@@H]3C=CC(=O)[C@@]3(C)[C@@H](O)[C@H]12 [HELENALIN] | 0.622 µM (active) | 1.66 µM (inactive) | 1.52 µM (inactive) | 1.51 µM (inactive) | 1.98 µM (inactive) | 0.574 µM (active) | 1.92 µM (inactive) | 3.79 µM (inactive) | 2.58 µM (inactive) | 0.78 µM (active) | – | 1.25 µM (inactive) | 2.77 µM (inactive) | 0.851 µM (active) | 0.51 µM (active) | 0.313 µM (active) | 1.71 µM (inactive) | – | 0.0352 µM (active) | 3.5 µM (inactive) |
| COc1ccc(C2N(c3ccc(C)c(N=C=O)c3)C(=O)N3C(c4ccc(OC)cc4)N(c4ccc(C)c(N=C=O)c4)C(=O)N23)cc1 (configuration not stated) | > 100 µM (inactive) | > 100 µM (inactive) | > 100 µM (inactive) | > 100 µM (inactive) | 29.1 µM (inactive) | > 100 µM (inactive) | > 100 µM (inactive) | > 100 µM (inactive) | > 100 µM (inactive) | > 100 µM (inactive) | 83.2 µM (inactive) | > 100 µM (inactive) | > 100 µM (inactive) | > 100 µM (inactive) | > 100 µM (inactive) | > 100 µM (inactive) | > 100 µM (inactive) | – | 37.7 µM (inactive) | > 100 µM (inactive) |
| CC(=O)c1sc2c(c1O)c(=O)n(-c1ccccc1)c(=S)n2-c1ccccc1 | > 100 µM (inactive) | – | > 100 µM (inactive) | > 100 µM (inactive) | > 100 µM (inactive) | > 100 µM (inactive) | – | > 100 µM (inactive) | > 100 µM (inactive) | > 100 µM (inactive) | > 100 µM (inactive) | > 100 µM (inactive) | > 100 µM (inactive) | > 100 µM (inactive) | – | > 10 µM (inactive) | > 100 µM (inactive) | > 100 µM (inactive) | 58.7 µM (inactive) | > 100 µM (inactive) |
| Cc1ccc(-c2c(C#N)c(-c3ccc(C)cc3)n(NS(=O)(=O)c3ccccc3)c(=O)c2C#N)cc1 | 49.2 µM (inactive) | 37.5 µM (inactive) | – | 25.2 µM (inactive) | 40.6 µM (inactive) | 35 µM (inactive) | 28.9 µM (inactive) | – | 42.1 µM (inactive) | 24 µM (inactive) | 28.6 µM (inactive) | 54.1 µM (inactive) | 32.5 µM (inactive) | 25.2 µM (inactive) | 31.1 µM (inactive) | 24.4 µM (inactive) | > 100 µM (inactive) | > 100 µM (inactive) | > 100 µM (inactive) | > 100 µM (inactive) |
| CC(=O)Oc1ccc2c(C)cc(=O)oc2c1OC(C)=O | 47.8 µM (inactive) | 29.1 µM (inactive) | 40.4 µM (inactive) | – | 39.1 µM (inactive) | 22.2 µM (inactive) | 34.1 µM (inactive) | 28.3 µM (inactive) | 41.3 µM (inactive) | 49.4 µM (inactive) | – | 37.2 µM (inactive) | 47.5 µM (inactive) | 34.5 µM (inactive) | 32.7 µM (inactive) | 5.4 µM (inactive) | 93.5 µM (inactive) | 24.2 µM (inactive) | 27 µM (inactive) | 25.3 µM (inactive) |
| CC(=O)NC(CCCCN)C(=O)NCc1ccccc1 (configuration not stated) | > 100 µM (inactive) | > 100 µM (inactive) | > 100 µM (inactive) | > 100 µM (inactive) | > 100 µM (inactive) | > 100 µM (inactive) | – | – | > 100 µM (inactive) | – | > 100 µM (inactive) | > 100 µM (inactive) | > 100 µM (inactive) | > 100 µM (inactive) | > 100 µM (inactive) | > 100 µM (inactive) | > 100 µM (inactive) | – | 88.1 µM (inactive) | 42.1 µM (inactive) |
| CCCCn1c(C)c(C)c2c1NN=C(C#N)S2(=O)=O | > 100 µM (inactive) | > 100 µM (inactive) | > 100 µM (inactive) | > 100 µM (inactive) | > 100 µM (inactive) | > 100 µM (inactive) | > 100 µM (inactive) | > 100 µM (inactive) | > 100 µM (inactive) | > 100 µM (inactive) | – | > 100 µM (inactive) | – | > 100 µM (inactive) | > 100 µM (inactive) | – | > 100 µM (inactive) | > 100 µM (inactive) | > 100 µM (inactive) | > 100 µM (inactive) |
| CC[C@@H]1C[C@H]2CC3c4[nH]c5ccc(O)cc5c4CCN(C2)C31 | 99.5 µM (inactive) | > 100 µM (inactive) | > 100 µM (inactive) | > 100 µM (inactive) | > 100 µM (inactive) | > 100 µM (inactive) | – | – | > 100 µM (inactive) | – | 36.8 µM (inactive) | > 100 µM (inactive) | > 100 µM (inactive) | > 100 µM (inactive) | > 100 µM (inactive) | > 100 µM (inactive) | > 100 µM (inactive) | – | > 100 µM (inactive) | > 100 µM (inactive) |
